Reference: ChEMBL document CHEMBL1148233, “Design and synthesis of macrocyclic inhibitors of phosphatase cdc25B” (Bioorg Med Chem Lett, 2004)

Experiments:
[1] = target: Serine/threonine-protein phosphatase 2A catalytic subunit alpha isoform (Bos taurus) (UniProt P67774); experiment: Selectivity against protein phosphatase 2A
[2] = target: T1, Tyrosine-protein phosphatase non-receptor type 1 (Homo sapiens) (UniProt P18031); experiment: Selectivity against protein tyrosine phosphatase 1B
T1 sequence (whole entry): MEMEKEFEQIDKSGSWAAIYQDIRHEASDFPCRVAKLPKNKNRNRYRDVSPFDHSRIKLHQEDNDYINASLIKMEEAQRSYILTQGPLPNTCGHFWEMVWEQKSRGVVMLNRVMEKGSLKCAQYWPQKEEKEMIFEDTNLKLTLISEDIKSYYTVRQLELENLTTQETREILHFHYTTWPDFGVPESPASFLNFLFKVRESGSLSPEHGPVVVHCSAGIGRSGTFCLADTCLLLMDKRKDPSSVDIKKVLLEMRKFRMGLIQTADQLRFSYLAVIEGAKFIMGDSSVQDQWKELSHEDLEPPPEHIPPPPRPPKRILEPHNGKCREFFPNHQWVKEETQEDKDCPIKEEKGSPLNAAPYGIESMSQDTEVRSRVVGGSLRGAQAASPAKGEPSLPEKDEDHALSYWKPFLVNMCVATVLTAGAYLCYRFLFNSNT

[3] = target: T2, M-phase inducer phosphatase 2 (Homo sapiens, UniProt P30305); experiment: Inhibitory concentration to human cell division cycle 25B (Cdc25B)
T2 sequence (P30305 whole entry): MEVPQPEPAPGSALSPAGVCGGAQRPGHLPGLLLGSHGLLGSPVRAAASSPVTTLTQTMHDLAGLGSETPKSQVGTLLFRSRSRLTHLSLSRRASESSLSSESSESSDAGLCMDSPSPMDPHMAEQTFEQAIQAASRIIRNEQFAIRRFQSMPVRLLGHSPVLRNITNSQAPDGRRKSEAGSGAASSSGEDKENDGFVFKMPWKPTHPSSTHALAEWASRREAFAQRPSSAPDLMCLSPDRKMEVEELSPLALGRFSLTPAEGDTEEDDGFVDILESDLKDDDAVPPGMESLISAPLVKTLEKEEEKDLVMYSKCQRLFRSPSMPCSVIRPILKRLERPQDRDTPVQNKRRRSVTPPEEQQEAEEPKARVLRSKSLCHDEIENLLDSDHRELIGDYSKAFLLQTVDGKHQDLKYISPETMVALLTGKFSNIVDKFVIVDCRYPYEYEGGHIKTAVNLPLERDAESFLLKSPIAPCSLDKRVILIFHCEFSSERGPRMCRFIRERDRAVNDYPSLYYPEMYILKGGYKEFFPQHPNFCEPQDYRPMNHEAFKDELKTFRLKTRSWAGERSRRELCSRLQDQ

[4] = target: Receptor-type tyrosine-protein phosphatase alpha (Homo sapiens) (UniProt P18433); experiment: Selectivity against protein tyrosine phosphatase alpha
Sequence of Receptor-type tyrosine-protein phosphatase alpha (Homo sapiens) (P18433 20-802 limits assumed): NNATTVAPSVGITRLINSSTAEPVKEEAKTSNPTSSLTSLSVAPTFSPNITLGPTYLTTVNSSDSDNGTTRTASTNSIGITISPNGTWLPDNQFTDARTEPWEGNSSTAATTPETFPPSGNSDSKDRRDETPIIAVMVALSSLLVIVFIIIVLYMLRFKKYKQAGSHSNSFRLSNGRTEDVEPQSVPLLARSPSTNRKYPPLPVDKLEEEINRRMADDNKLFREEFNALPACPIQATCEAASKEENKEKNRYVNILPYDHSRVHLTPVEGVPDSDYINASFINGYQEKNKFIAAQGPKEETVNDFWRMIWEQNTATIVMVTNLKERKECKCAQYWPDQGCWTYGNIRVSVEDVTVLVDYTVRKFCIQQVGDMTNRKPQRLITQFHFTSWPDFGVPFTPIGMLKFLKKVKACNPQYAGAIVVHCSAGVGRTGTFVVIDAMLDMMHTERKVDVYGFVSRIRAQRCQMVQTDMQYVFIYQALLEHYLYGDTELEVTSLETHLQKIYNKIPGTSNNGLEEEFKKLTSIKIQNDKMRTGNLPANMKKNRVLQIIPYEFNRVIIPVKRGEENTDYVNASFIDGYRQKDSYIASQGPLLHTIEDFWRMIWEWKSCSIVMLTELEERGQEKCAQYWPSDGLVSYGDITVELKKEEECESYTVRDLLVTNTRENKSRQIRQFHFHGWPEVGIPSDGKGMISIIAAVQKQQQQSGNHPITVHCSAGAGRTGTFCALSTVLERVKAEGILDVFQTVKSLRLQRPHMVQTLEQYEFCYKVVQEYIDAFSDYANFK

Sequence of Serine/threonine-protein phosphatase 2A catalytic subunit alpha isoform (Bos taurus) (P67774 whole entry, canonical isoform): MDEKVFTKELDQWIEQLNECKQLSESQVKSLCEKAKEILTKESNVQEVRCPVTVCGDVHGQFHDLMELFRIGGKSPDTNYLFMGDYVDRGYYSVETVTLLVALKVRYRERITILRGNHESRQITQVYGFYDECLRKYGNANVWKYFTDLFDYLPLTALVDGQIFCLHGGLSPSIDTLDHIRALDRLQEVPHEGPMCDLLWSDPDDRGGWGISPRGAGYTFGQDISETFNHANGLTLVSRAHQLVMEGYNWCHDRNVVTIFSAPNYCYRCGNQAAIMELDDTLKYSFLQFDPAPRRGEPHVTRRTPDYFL

Selectivity [1] [µM]	Selectivity [2] [µM]	IC50 [3] [µM]	Selectivity [4] [µM]	SMILES
> 30	> 30	> 30	> 30	CC(=O)O[C@@]1(C)CC/C(C)=C\CC[C@]2(C)[C@@H]([C@H](C)CCCC(C)C)CC[C@H]2c2ccc(cc2C(C)=O)C1
> 30	> 30	5.6	> 30	CC(=O)O[C@H]1CC/C(C)=C\CC[C@]2(C)[C@@H]([C@H](C)CCCC(C)C)CC[C@H]2c2ccc(cc2C(=O)O)C1
> 30	> 30	> 30	> 30	C/C1=C/CC[C@]2(C)[C@@H]([C@H](C)CCCC(C)C)CC[C@H]2c2ccc(cc2CO)C[C@@H](O)CC1
> 30	> 30	11	> 30	CC(=O)O[C@@]1(C)CCC(C)CCC[C@]2(C)[C@@H]([C@H](C)CCCC(C)C)CC[C@H]2c2ccc(cc2C)C1 (some centres undefined)
> 30	> 30	7.9	> 30	C/C1=C/CC[C@]2(C)[C@@H]([C@H](C)CCCC(C)C)CC[C@H]2c2ccc(cc2C(=O)O)CC(O)CC1 (some centres undefined)
–	–	8.7	–	CC(=O)O[C@H]1CC[C@](C)(C2CC[C@@]3(C)C(CC[C@@H]3[C@H](C)CCCC(C)C)[C@@H]2CC(=O)O)C(=O)O1 (some centres undefined)
> 30	> 30	7.1	> 30	C/C1=C/CC[C@]2(C)[C@@H]([C@H](C)CCCC(C)C)CC[C@H]2c2ccc(cc2C(=O)O)C[C@H](Oc2ccccc2)CC1
> 30	> 30	> 30	> 30	COC(=O)c1cc2ccc1[C@@H]1CC[C@H]([C@H](C)CCCC(C)C)[C@@]1(C)CC/C=C(/C)CCC(=O)C2
> 30	> 30	8.5	> 30	C/C1=C/CC[C@]2(C)[C@@H]([C@H](C)CCCC(C)C)CC[C@H]2c2ccc(cc2C(=O)O)CC(=O)CC1
> 30	> 30	29	> 30	COCc1cc2ccc1[C@@H]1CC[C@H]([C@H](C)CCCC(C)C)[C@@]1(C)CC/C=C(/C)CC[C@](C)(OC(C)=O)C2
> 30	> 30	7.5	> 30	CC(=O)CC(=O)O[C@H]1CC/C(C)=C\CC[C@]2(C)[C@@H]([C@H](C)CCCC(C)C)CC[C@H]2c2ccc(cc2C(=O)O)C1
> 30	> 30	9.3	> 30	C=CC[C@]1(O)CC/C(C)=C\CC[C@]2(C)[C@@H]([C@H](C)CCCC(C)C)CC[C@H]2c2ccc(cc2C(=O)O)C1
> 30	> 30	> 30	> 30	C/C1=C/CC[C@]2(C)[C@@H]([C@H](C)CCCC(C)C)CC[C@H]2c2ccc(cc2C(C)O)C[C@@](C)(O)CC1 (some centres undefined)
25	> 30	3.4	> 30	CC(C)CCC[C@@H](C)[C@H]1CC[C@H]2c3ccc(cc3C(=O)O)CC(=O)CCC(C)CCC[C@]12C (some centres undefined)
> 30	> 30	> 30	> 30	COC(=O)c1cc2ccc1[C@@H]1CC[C@H]([C@H](C)CCCC(C)C)[C@@]1(C)CC/C=C(/C)CC[C@H](O)C2
> 30	> 30	> 30	> 30	COC(=O)c1cc2ccc1[C@@H]1CC[C@H]([C@H](C)CCCC(C)C)[C@@]1(C)CC/C=C(/C)CC[C@H](OC(C)=O)C2
> 30	> 30	4.9	> 30	CC(=O)O[C@H]1CC/C(C)=C\CC[C@]2(C)[C@@H]([C@H](C)CCCC(C)C)CC[C@H]2c2ccc(cc2C=O)C1
> 30	> 30	> 30	> 30	Cc1cc2ccc1[C@@H]1CC[C@H]([C@H](C)CCCC(C)C)[C@@]1(C)CCCC(C)CC[C@](C)(O)C2 (some centres undefined)
> 30	> 30	4.9	> 30	CC(C)CCC[C@@H](C)[C@H]1CC[C@H]2c3ccc(cc3C(=O)O)CC(O)CCC(C)CCC[C@]12C (some centres undefined)
> 30	> 30	8.4	> 30	C=CC[C@@]1(O)CC/C(C)=C\CC[C@]2(C)[C@@H]([C@H](C)CCCC(C)C)CC[C@H]2c2ccc(cc2C(=O)O)C1
> 30	> 30	> 30	> 30	CC(=O)O[C@@]1(C)CC/C(C)=C\CC[C@]2(C)[C@@H]([C@H](C)CCCC(C)C)CC[C@H]2c2ccc(cc2C(C)O)C1 (some centres undefined)
> 30	> 30	7.8	> 30	CC(=O)O[C@H]1CCC(C)CCC[C@]2(C)[C@@H]([C@H](C)CCCC(C)C)CC[C@H]2c2ccc(cc2C(=O)O)C1 (some centres undefined)
> 30	> 30	> 30	> 30	CC(=O)O[C@@]1(C)CCC(C)CCC[C@]2(C)[C@@H]([C@H](C)CCCC(C)C)CC[C@H]2c2ccc(cc2CN2CCOCC2)C1 (some centres undefined)
–	–	6.5	–	C/C1=C/CC[C@]2(C)[C@@H]([C@H](C)COC(=O)c3ccccc3)CC[C@H]2c2ccc(cc2C(=O)O)C[C@@H](O)CC1
> 30	> 30	> 30	> 30	CC(=O)c1cc2ccc1[C@@H]1CC[C@H]([C@H](C)CCCC(C)C)[C@@]1(C)CC/C=C(/C)CC[C@](C)(O)C2
> 30	> 30	11	> 30	COC(=O)C(=O)O[C@H]1CC/C(C)=C\CC[C@]2(C)[C@@H]([C@H](C)CCCC(C)C)CC[C@H]2c2ccc(cc2C(=O)O)C1
> 30	> 30	3.5	> 30	C/C1=C/CC[C@]2(C)[C@@H]([C@H](C)CCCC(C)C)CC[C@H]2c2ccc(cc2C=O)C[C@H](Oc2ccccc2)CC1
> 30	> 30	> 30	> 30	CC(=O)O[C@H]1CC/C(C)=C\CC[C@]2(C)[C@@H]([C@H](C)CCCC(C)C)CC[C@H]2c2ccc(cc2CO)C1
> 30	> 30	11	> 30	C/C1=C/CC[C@]2(C)[C@@H]([C@H](C)CCCC(C)C)CC[C@H]2c2ccc(cc2C=O)C[C@@H](O)CC1
> 30	> 30	> 30	> 30	CC(C)CCC[C@@H](C)[C@H]1CC[C@H]2c3ccc(cc3CO)C[C@@H](O)CCC(C)CCC[C@]12C (some centres undefined)
